# Assay results as given in patent publication US20060134693A1, “Olfactory cyclic nucleotide-gated channel cell-based assays to identify T1R and T2R taste modulators” (priority 2001, published 2006).
# How the values were obtained:
# [1] = target: T1, human sweet receptor hT1R2/hT1R3 (Homo sapiens, UniProt Q7RTX0+Q8TE23); conditions: prevented by pertussis toxin; cited from earlier work
# T1 construct: host or cells: human embryonic kidney cells (earlier application U.S. Ser. No. 10/770,127)
# T1 sequence (Q8TE23 20-839): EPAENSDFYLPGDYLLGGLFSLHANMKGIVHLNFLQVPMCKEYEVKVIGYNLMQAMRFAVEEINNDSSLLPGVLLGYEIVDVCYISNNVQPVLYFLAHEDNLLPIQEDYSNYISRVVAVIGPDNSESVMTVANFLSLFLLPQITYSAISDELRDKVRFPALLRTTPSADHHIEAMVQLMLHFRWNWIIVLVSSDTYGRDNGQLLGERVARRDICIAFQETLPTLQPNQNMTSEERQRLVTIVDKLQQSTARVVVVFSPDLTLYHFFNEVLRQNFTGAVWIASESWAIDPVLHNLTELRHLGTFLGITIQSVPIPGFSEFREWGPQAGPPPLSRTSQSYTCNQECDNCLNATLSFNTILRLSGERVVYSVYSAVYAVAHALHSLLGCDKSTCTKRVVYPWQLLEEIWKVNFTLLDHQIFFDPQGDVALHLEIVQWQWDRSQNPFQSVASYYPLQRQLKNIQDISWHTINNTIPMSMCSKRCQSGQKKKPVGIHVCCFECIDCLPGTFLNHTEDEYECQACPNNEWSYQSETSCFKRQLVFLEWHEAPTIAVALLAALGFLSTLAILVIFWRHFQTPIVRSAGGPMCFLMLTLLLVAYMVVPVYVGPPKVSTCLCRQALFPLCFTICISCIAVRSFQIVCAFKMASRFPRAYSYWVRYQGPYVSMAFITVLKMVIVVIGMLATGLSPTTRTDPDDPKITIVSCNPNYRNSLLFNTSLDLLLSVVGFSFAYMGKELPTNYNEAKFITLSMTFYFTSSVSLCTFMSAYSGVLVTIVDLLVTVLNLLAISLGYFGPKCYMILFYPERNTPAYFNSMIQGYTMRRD
# T1 sequence (Q7RTX0 21-852): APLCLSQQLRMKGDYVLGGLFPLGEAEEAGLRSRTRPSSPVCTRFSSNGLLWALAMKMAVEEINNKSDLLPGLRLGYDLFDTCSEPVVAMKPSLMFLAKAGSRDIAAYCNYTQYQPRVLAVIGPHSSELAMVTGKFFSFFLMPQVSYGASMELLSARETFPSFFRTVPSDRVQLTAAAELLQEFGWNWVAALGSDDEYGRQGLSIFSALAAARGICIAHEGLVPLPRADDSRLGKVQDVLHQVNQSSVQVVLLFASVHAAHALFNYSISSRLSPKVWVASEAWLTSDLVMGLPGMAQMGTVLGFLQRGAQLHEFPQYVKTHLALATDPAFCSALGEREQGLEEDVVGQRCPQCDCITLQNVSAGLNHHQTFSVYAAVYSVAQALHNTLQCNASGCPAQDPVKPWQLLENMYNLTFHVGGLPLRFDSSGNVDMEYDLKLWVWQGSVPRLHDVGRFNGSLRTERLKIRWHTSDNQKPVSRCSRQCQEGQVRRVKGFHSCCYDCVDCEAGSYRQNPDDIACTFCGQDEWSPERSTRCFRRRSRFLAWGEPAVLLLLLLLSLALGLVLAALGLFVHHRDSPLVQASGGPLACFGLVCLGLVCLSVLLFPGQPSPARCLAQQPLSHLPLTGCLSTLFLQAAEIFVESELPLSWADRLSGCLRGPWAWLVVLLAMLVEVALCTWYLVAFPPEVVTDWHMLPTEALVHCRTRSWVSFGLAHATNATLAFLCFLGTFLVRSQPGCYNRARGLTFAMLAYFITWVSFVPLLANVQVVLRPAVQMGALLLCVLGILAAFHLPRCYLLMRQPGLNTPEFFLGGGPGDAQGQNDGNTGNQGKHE
# [2] = test system: untransfected HEK 293-oCNGC cells; test: Isoproterenol-induced calcium influx in untransfected HEK 293-oCNGC cells; type: cell-based, human; conditions: for effect on isoproterenol-induced calcium influx: cells not expressing hT1R2/hT1R3, increasing concentrations, 200 nM isoproterenol, FIG. 14
# Procedure: Delta F/F valves were normalized to the fluorescence obtained after stimulation with 200 nM isoproterenol. Each value corresponds to the mean ± SD of a triplicate determination.
# (§1) Modulation of oCNG activity by taste receptors is measured in a cell-based assay that detects changes in intracellular calcium (as described in earlier examples). In brief, human embryonic kidney cells stably expressing the OCNC1 and are β1b subunits of oCNGC are transiently or stably transfected with T1R or T2R receptor plasmids. Transfected cells are seeded into 384-well culture plates, and functional expression is allowed to proceed for about 24 to 48 hours. The cells are then incubated with a calcium specific fluorescent dye (Fluo-4 or Fura-2, available from Molecular Probes) that provides for fast, simple and reliable fluorimetric detection of changes in calcium concentration within the cell.
# An experiment was conducted to confirm that the effects of the sweeteners on calcium influx requires the expression of the sweet receptor.
# In FIG. 14, it is shown that increasing concentrations of the tested sweeteners had no inhibitory effect on isoproterenol-induced calcium influx in untransfected HEK 293—oCNGC cells. Again, Delta F/F values were normalized to the fluorescence obtained after stimulation with 200 nM isoproternol and each value component to the mean ± SD of a triplicate determination).
# bitter receptor mT2R05 = target: T2, bitter receptor mT2R05 (Mus musculus, UniProt Q9JKT4); test: Isoproterenol-induced calcium influx in HEK-293-oCNGC cells expressing mT2R05; type: cell-based; conditions: 200 nM isoproterenol, FIG. 16
# T2 construct: expressed in transfected cells; host or cells: HEK-293 stably expressing OCNC1 and β1b (HEK-293-oCNGC)
# T2 sequence (Q9JKT4 1-300): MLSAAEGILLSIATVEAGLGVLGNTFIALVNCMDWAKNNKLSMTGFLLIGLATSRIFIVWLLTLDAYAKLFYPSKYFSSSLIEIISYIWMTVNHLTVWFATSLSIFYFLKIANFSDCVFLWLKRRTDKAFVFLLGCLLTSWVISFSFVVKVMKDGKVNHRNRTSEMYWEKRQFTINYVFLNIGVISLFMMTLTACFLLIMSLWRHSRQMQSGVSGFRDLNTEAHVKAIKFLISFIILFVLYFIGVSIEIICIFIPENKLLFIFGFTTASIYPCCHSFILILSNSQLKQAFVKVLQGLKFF
# Procedure: Delta F/F values were normalized to the fluorescence obtained after stimulation with 200 nM isoproterenol. Each value corresponds to the mean +1-SD of a triplicate determination. Cells were also treated with PTX as described for the for the preceding figure.
# as §1, with “cell. […]” for “cell.”
# More specifically, it was shown that PTx prevented inhibition of calcium inluux even with increasing concentrations of cycloheximide in HEK-293—oCNGC cells expressing mT2R05. As in figures above, Delta F/F values were normalized to the fluorescence obtained after stimulation with 200 nM isoproterenol. […]
# mT2R05 = target: T3, mT2R05 (Mus musculus, UniProt Q9JKT4); conditions: mT2R05-expressing cells; cited from earlier work
# T3 construct: host or cells: human embryonic kidney cells (earlier application)
# T3 sequence (Q9JKT4 1-300): T2 sequence (Q9JKT4 1-300)
# [3] = target: T4, mouse bitter receptor mT2R05 (Mus musculus, UniProt Q9JKT4); conditions: abolished by pertussis toxin; cited from earlier work
# T4 construct: host or cells: human embryonic kidney cells (earlier application)
# T4 sequence (Q9JKT4 1-300): T2 sequence (Q9JKT4 1-300)
# [4] = test system: rat bitter receptors rT2R9; conditions: abolished by pertussis toxin; cited from earlier work
# hT1R1/hT1R3 = target: T5, hT1R1/hT1R3 (Homo sapiens, UniProt Q7RTX0+Q7RTX1); conditions: hT1R1/hT1R3-expressing cells; cited from earlier work
# T5 construct: host or cells: human embryonic kidney cells (earlier application U.S. Ser. No. 10/770,127)
# T5 sequence (Q7RTX1 21-841): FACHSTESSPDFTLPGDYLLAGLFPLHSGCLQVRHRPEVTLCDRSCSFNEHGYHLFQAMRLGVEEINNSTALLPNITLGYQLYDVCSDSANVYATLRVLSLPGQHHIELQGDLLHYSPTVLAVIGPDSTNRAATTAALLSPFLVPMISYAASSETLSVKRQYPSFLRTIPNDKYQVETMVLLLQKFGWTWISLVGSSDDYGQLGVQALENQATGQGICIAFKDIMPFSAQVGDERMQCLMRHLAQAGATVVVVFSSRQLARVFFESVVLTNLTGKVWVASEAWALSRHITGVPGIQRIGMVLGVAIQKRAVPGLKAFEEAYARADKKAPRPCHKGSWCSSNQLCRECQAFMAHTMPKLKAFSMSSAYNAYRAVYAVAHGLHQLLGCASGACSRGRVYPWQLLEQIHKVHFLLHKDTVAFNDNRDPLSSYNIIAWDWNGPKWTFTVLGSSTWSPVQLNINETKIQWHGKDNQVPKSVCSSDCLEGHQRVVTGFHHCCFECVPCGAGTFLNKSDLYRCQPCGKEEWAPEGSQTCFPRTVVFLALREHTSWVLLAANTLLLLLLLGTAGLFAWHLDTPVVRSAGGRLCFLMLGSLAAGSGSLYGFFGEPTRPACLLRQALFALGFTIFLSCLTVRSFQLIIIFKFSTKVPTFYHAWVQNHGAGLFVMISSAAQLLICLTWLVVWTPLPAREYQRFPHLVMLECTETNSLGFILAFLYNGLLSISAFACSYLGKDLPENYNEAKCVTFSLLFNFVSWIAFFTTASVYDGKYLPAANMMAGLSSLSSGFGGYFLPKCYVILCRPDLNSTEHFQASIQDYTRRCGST
# T5 sequence (Q7RTX0 21-852): T1 sequence (Q7RTX0 21-852)
# [5] = target: T6, human umami receptor hT1R1/hT1R3 (Homo sapiens, UniProt Q7RTX0+Q7RTX1); conditions: prevented by pertussis toxin; cited from earlier work
# T6 sequence (Q7RTX1 21-841): T5 sequence (Q7RTX1 21-841)
# T6 sequence (Q7RTX0 21-852): T1 sequence (Q7RTX0 21-852)
# [6] = target: T1, human sweet receptor hT1R2/hT1R3; test: Isoproterenol-induced calcium influx in HEK-293-oCNGC cells expressing hT1R2/hT1R3; type: cell-based; conditions: PTX 100 ng/ml for 4 hours; 200 nM isoproterenol; 5 mM Aspartame, 2 mM Cyclamate, 4 mM Saccharin, 0.1 mM Neotame; FIG. 15
# Procedure: FIG. 13 contains the result of an experiment showing that increasing concentrations of sweeteners inhibit the isoproterenol-induced-calcium influx in HEK 293-oCNGC cells expressing the human sweet receptor hT1R2/hT1R3. Delta F/F values were normalized to the fluorescence obtained after stimulation with 200 nM isoproterenol. Each value corresponds to the mean ± SD of a triplicate determination.
# Cells were left untreated (control) or treated with PTX for 4 hours at 100 ng/ml prior to the experiment. Cells were then stimulated with 200 nM isoproterenol in the presence or absence of the indicated sweeteners (5 mM Aspartame, 2 mM Cyclamate, 4 mM Saccharin and 0.1 mM Neotame).
# as §1
# An experiment was conducted to assess the effect of various sweeteners (known to activate the human T1R2/T1R3 sweet receptor) on isoproterenol-induced calcium influx in HEK-293—oCNGC cells that express the human T1R2/T1R3 sweet receptor. As shown by the results in FIG. 13, increasing concentrations of sweetener inhibits isoproterenol-induced calcium influx in these cells. (In the figure, Delta F/F values were normalized to the fluorescence obtained after stimulation with 200 nM isoproterenol and each value corresponds to the means ± SD of a triplicate determination). […]
structure (smiles),measurement,setting,value
N[C@H](Cc1c[nH]c2ccccc12)C(=O)O [D-tryptophan],ERK1/2 activation,[1],activate ERK1/2
C[C@@H]1C[C@@H]([C@H](O)CC2CC(=O)NC(=O)C2)C(=O)[C@@H](C)C1 [cycloheximide],response of mT2R05 untransfected cells,"[2]; untransfected HEK 293-oCNGC cells, FIG. 16",did not respond
same,effect on isoproterenol-induced calcium influx after PTx treatment,bitter receptor mT2R05; cells treated with PTx,failed to inhibit isoproterenol-induced calcium influx
same,effect on isoproterenol-induced calcium influx,bitter receptor mT2R05; increasing concentrations,inhibited isoproterenol-induced calcium influx
same,inhibition of forskolin-induced cAMP accumulation,mT2R05,70%
same,ERK1/2 activation,[3],specifically activates ERK1/2
same,ERK1/2 activation,[4],specifically activates ERK1/2
N[C@@H](CCC(=O)O)C(=O)[O-].[Na+] [monosodium glutamate],decrease of basal levels of cAMP,hT1R1/hT1R3,50%
same,ERK1/2 activation,[5],exclusively activates ERK1/2
COC(=O)[C@H](Cc1ccccc1)NC(=O)[C@H](CC(=O)O)NCCC(C)(C)C [neotame],inhibition of isoproterenol-induced calcium influx after PTx pretreatment,[6],prevented the inhibition
same,effect on isoproterenol-induced calcium influx,[2],unaffected
O=C1NS(=O)(=O)c2ccccc21 [saccharin],inhibition of isoproterenol-induced calcium influx after PTx pretreatment,[6],prevented the inhibition
same,effect on isoproterenol-induced calcium influx,[2],unaffected
same,ERK1/2 activation,[1],activate ERK1/2
OC[C@H]1O[C@@](CO)(O[C@H]2O[C@H](CO)[C@@H](O)[C@H](O)[C@H]2O)[C@@H](O)[C@@H]1O [sucrose],ERK1/2 activation,[1],activate ERK1/2
